Measurements published in patent US10738028B2, “Spiro three-membered ring, spiro five-membered ring peptide deformylase inhibitor and use thereof in antibacteria and anti-tumor” (priority 2016, dated 2020).

Columns and labels:
Type in all cases: cell-based
[1] = test system: HCT-116 colorectal cancer cell line; experiment: CCK-8 proliferation inhibition; conditions: Homo sapiens, HCT-116, 72 h, concentration of 30 μM; 72 hours; CCK-8; read-out: HCT116 inhibition rate/%
Summary of the method: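 2000 cells/well, McCoy's 5A + 10% newborn bovine serum; overnight attach, 37° C./5% CO2. Cpd from DMSO stock diluted in medium, 72 h. Readout: CCK-8 (1:10). Ctrl 1‰ DMSO.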

[2] = test system: methicillin-sensitive Staphylococcus epidermidis (MSSE); experiment: MIC, two-fold agar dilution (CLSI), clinical isolates
Excerpt: (§1) 1. The invention adopts the two-fold agar dilution method recommended by the operating procedure of antimicrobial susceptibility testing set by American Clinical and Laboratory Standards Institute (CLSI) to determine the Minimum Inhibitory Concentration (MIC) of the test samples against the tested strains.

[3] = test system: Enterococcus faecalis (EFA); experiment: as above
Excerpt: as §1

[4] = test system: methicillin-resistant Staphylococcus epidermidis (MRSE); experiment: as above
Excerpt: as §1

[5] = test system: methicillin-resistant Staphylococcus aureus (MRSA); experiment: as above
Excerpt: as §1

[6] = test system: Moraxella catarrhalis (BCA); experiment: as above
Excerpt: as §1

[7] = test system: Enterococcus faecium (EFM); experiment: as above
Excerpt: as §1

[8] = test system: methicillin-sensitive Staphylococcus aureus (MSSA); experiment: as above
Excerpt: as §1

[9] = test system: Escherichia coli (including ESBLs, non-ESBLs); experiment: as above
Excerpt: as §1

[10] = test system: Streptococcus pneoumoniae (SPN); experiment: as above
Excerpt: as §1

O=C(C[C@@H](CC1CCCC1)C(=O)N1CC2(CC2)C[C@H]1C(=O)Nc1nncs1)NO [Example 74]
inhibition at 30 µM [1]: 1%
Anti-bacterial activity (MIC), strain MSSE 15-3 ([2]; clinical isolate MSSE 15-3): 1 mg/L
Anti-bacterial activity (MIC), strain MSSE 15-4 ([2]; clinical isolate MSSE 15-4): 1 mg/L
Anti-bacterial activity (MIC), strain MSSE 15-5 ([2]; clinical isolate MSSE 15-5): 1 mg/L
Anti-bacterial activity (MIC), strain MSSE 15-6 ([2]; clinical isolate MSSE 15-6): 1 mg/L
Anti-bacterial activity (MIC) ([3]; strain EFA 15-1): > 32 mg/L
Anti-bacterial activity (MIC) ([3]; strain EFA 15-2): > 32 mg/L
Anti-bacterial activity (MIC) ([3]; strain EFA 15-3): 16 mg/L
Anti-bacterial activity (MIC) ([3]; strain EFA 15-4): > 32 mg/L
Anti-bacterial activity (MIC) ([3]; strain EFA 15-5): > 32 mg/L
Anti-bacterial activity (MIC) ([3]; strain EFA 15-6): > 32 mg/L
Anti-bacterial activity (MIC) ([3]; strain EFA 15-9): > 32 mg/L
Anti-bacterial activity (MIC), strain MRSE 15-1 ([4]; clinical isolate MRSE 15-1): 0.5 mg/L
Anti-bacterial activity (MIC), strain MRSE 15-2 ([4]; clinical isolate MRSE 15-2): 1 mg/L
Anti-bacterial activity (MIC), strain MRSE 15-3 ([4]; clinical isolate MRSE 15-3): 1 mg/L
Anti-bacterial activity (MIC), strain MRSE 15-7 ([4]; clinical isolate MRSE 15-7): 4 mg/L
Anti-bacterial activity (MIC), strain MRSA 15-1 ([5]; clinical isolate MRSA 15-1): 4 mg/L
Anti-bacterial activity (MIC), strain MRSA 15-2 ([5]; clinical isolate MRSA 15-2): 8 mg/L
Anti-bacterial activity (MIC), strain MRSA 15-3 ([5]; clinical isolate MRSA 15-3): 5 mg/L
Anti-bacterial activity (MIC), strain MRSA 15-4 ([5]; clinical isolate MRSA 15-4): 8 mg/L
Anti-bacterial activity (MIC) ([6]; strain BCA 14-1): > 32 mg/L
Anti-bacterial activity (MIC) ([6]; strain BCA 14-4): > 32 mg/L
Anti-bacterial activity (MIC) ([6]; strain BCA 14-5): 16 mg/L
Anti-bacterial activity (MIC) ([6]; strain BCA 14-6): > 32 mg/L
Anti-bacterial activity (MIC) ([6]; strain BCA 14-7): > 32 mg/L
Anti-bacterial activity (MIC) ([6]; strain BCA 14-8): > 32 mg/L
Anti-bacterial activity (MIC) ([6]; strain BCA 14-10): > 32 mg/L
Anti-bacterial activity (MIC) ([7]; strain EFM 15-1): 16 mg/L
Anti-bacterial activity (MIC) ([7]; strain EFM 15-2): 32 mg/L
Anti-bacterial activity (MIC) ([7]; strain EFM 15-3): 4 mg/L
Anti-bacterial activity (MIC) ([7]; strain EFM 15-4): 32 mg/L
Anti-bacterial activity (MIC) ([7]; strain EFM 15-5): 4 mg/L
Anti-bacterial activity (MIC) ([7]; strain EFM 15-6): 32 mg/L
Anti-bacterial activity (MIC), strain MSSA 15-3 ([8]; clinical isolate MSSA 15-3): 4 mg/L
Anti-bacterial activity (MIC), strain MSSA 15-4 ([8]; clinical isolate MSSA 15-4): 4 mg/L
Anti-bacterial activity (MIC), strain MSSA 15-5 ([8]; clinical isolate MSSA 15-5): 2 mg/L
Anti-bacterial activity (MIC), strain MSSA 15-6 ([8]; clinical isolate MSSA 15-6): 4 mg/L
Anti-bacterial activity (MIC), strain ECO+ 15-1 ([9]; clinical isolate ECO+ 15-1): 32 mg/L
Anti-bacterial activity (MIC), strain ECO+ 15-2 ([9]; clinical isolate ECO+ 15-2): > 32 mg/L
Anti-bacterial activity (MIC), strain ECO+ 15-3 ([9]; clinical isolate ECO+ 15-3): > 32 mg/L
Anti-bacterial activity (MIC), strain ECO+ 15-4 ([9]; clinical isolate ECO+ 15-4): > 32 mg/L
Anti-bacterial activity (MIC), strain ECO− 15-1 ([9]; clinical isolate ECO− 15-1): > 32 mg/L
Anti-bacterial activity (MIC), strain ECO− 15-2 ([9]; clinical isolate ECO− 15-2): > 32 mg/L
Anti-bacterial activity (MIC), strain ECO− 15-3 ([9]; clinical isolate ECO− 15-3): > 32 mg/L
Anti-bacterial activity (MIC), strain ECO− 15-4 ([9]; clinical isolate ECO− 15-4): > 32 mg/L
Anti-bacterial activity (MIC) ([10]; strain SPN 16-2): 32 mg/L
Anti-bacterial activity (MIC) ([10]; strain SPN 16-4): 4 mg/L
